The values below come from patent US11918550B2, “Sensitization of cancer cells to differentiation therapy with mitochondrial uncoupler niclosamide ethanolamine” (The Board of Trustees of the Leland Stanford Junior …, priority 2020, dated 2024).

For experiment [1], the system named is HIF target genes such as pdk1, pdk3, pgk1 and Idha. Description: RT-PCR of HIF target genes. The settings on record: SK-N-BE(2), 2 or 4 μM NEN, normoxia or hypoxia. In kind it is cell-based. The procedure: (§1) RNA isolation, reverse transcription, and real-time PCR. The procedure was performed as described before. Briefly, total RNA was isolated from 60 mm tissue culture plates according to the TRIzol Reagent (Invitrogen, 15596026) protocol. 3 μg of total RNA was used in the reverse transcription reaction using the iScript cDNA synthesis kit (Bio-Rad). Quantitative PCR amplification was performed on the Prism 7900 Sequence Detection System (Applied Biosystems) using Taqman Gene Expression Assays (Applied Biosystems). Gene expression level were normalized to 18S rRNA.

The test system of experiment [2] is SK-N-BE(2) cells. Kind of experiment: Methylated DNA Immunoprecipitation (MeDIP)-qRT-PCR. The class given is cell-based. The settings on record: 1 μM NEN 5 h. The procedure:
Methylated DNA Immunoprecipitation. 5×10^5 SK-N-BE(2) cells were plated in 60 mm dishes. […] After treatment, the cells were collected for DNA extraction as described above. 10 μg genomic DNA was sheared using a Bioruptor® Plus sonicator (Diagenode, UCD-300) to 550 bp fragments according to the instrument manual. Agarose electrophoresis was employed to examine the sizes of DNA fragments. The sonicated DNA samples were denatured at 95° C. for 15 minutes, then kept on ice immediately for at least 5 minutes. 200 ng denatured DNA was transferred to a new tube for input control and diluted with EDTA-free TE buffer to 100 μl total volume. For each pulldown reaction, transfer 600 ng of denatured DNA solution to new tubes and add EDTA-free TE buffer to 300 μl total volume. Add 2 μl antibody (5-mc or IgG control) and 20 μl prewashed Dynabeads™ Protein A (Invitrogen™, 10001 D) into the tubes and incubate the samples at 4° C. for 60 minutes with rotation. After incubation, place the tubes in magnetic rack for 30 s to allow the beads separate from solution. Remove the solution carefully without disturbing the beads. Wash the beads for 4 times by IP buffer (0.01% SDS, 1% Triton X-100, 2 mM EDTA, 20 mM Tris-HCl pH 8.1, 150 mM NaCl). DNA was eluted by resuspending the beads in 100 μl of digestion buffer (10 mM Tris pH 8.0, 1 mM EDTA, 1% SDS, 1 μg/μl proteinase K) and incubated for 6 hr at 65° C. […]

Experiment [3] has as its system orthotopic neuroblastoma xenograft (SK-N-BE(2) cells). Kind of experiment: Orthotopic neuroblastoma xenograft model, tumor growth by ultrasound. The class given is in vivo, mice. Conditions: diet 2000 ppm NEN (n=4) vs control group (n=6). How it is done:
Mouse orthotopic neuroblastoma model. All mouse procedures were performed in accordance with Stanford University recommendations for the care and use of animals and were maintained and handled under protocols approved by the Institutional Animal Care and Use Committee. All procedures were performed with female NC nude mice (Taconic, Hudson, NY, USA) at 7 weeks of age. Procedures and ultrasound measurements (see below) were performed under general anesthesia using isoflurane inhalation. Orthotopic tumors within the adrenal gland were created as described before 16. Briefly, a transverse incision was made on the left flank to locate the left adrenal gland, and […] of phosphate buffered saline (PBS) containing […] SK-N-BE(2) cells were injected into the adrenal gland using a 30 G needle. Fascia and skin were closed in separate layers. Tumor formation was monitored by non-invasive ultrasound measurements, and the animals euthanized when the tumor volume exceeded 1,000 mm^3. Monitoring tumor growth with high frequency ultrasound. After securing the mouse in a prone position, a Visual Sonics Vevo 2100 sonographic probe (Toronto, Ontario, Canada) was applied to the left flank to locate the left adrenal gland and the tumor. […] The tumor volume was measured using the 3-D reconstruction tool (Vevo Software v1.6.0, Toronto, Ontario, Canada).

The test system of experiment [4] is RA-resistant neuroblastoma cells. Description: Clonogenic assay. In kind it is cell-based. Conditions: 1 μM NEN with 1 μM RA, two weeks. The procedure:
For the clonogenic assay, 500 cells were plated in 60 mm dishes. After 24 h, cells were treated with indicated conditions. After 14 days, the cells were fixed by 50% methanol in PBS for 15 minutes and stained by crystal violet staining solution (0.5% crystal violet and 25% methanol in PBS). The quantification was done by using countPHICS.

Another experiment relates to neuroblastoma cells. Description: Cell proliferation (cell counting). In kind it is cell-based. Conditions: 1 μM NEN vs DMSO. How it is done: Cell proliferation and clonogenic assay. 2×10^4 cells were seeded in 12 well-plate and allowed to attached overnight. […] After treatment, cells were counted using hemocytometer.
Experiment [5] deals with SK-N-BE(2) cells. Description: RNA-seq gene expression profiling with GSEA/DAVID analysis and qPCR validation. In kind it is cell-based. How it is done:
as §1
RNA Sequencing and bioinformatics analysis. […] The RNA-seq library was constructed and subjected to 150 bp paired-end sequencing on an Illumina sequencing platform (Novogene). RNA-seq analysis was performed using the kallisto and sleuth analytical pipeline. In brief, a transcript index was generated with reference to Ensembl version 67 for hg19. Paired-end mRNA-seq reads were pseudo-aligned using kallisto (v0.42.4) with respect to this transcript index using 100 bootstraps (-b 100) to estimate the variance of estimated transcript abundances. Transcript-level estimates were aggregated to transcripts per million (TPM) estimates for each gene, with gene names assigned from Ensembl using biomaRt. Differential gene expression analysis was performed using the sleuth R package across pairwise groups using Wald tests, with significant hits called with a sleuth q-value<0.05 and log 2(fold change) >0.693 or <−0.693. […] All the annotated transcripts (˜21,427 features in total) with expression values were uploaded to a locally-installed GSEA tool (version 4.1.0) and compared against the H: hallmark gene sets (50 gene sets).
To generate the favorable or unfavorable prognosis gene sets, Kaplan-Meier assay were employed for all the genes independently by using all 11 available neuroblastoma patient databases from R2.
For functional annotation, differentially expressed genes were submitted to online Database for Annotation, Visualization and Integrated Discovery (DAVID) website. The Analyses in DAVID were performed using the default parameters.
(Real-time PCR tracks product formation cycle by cycle.)

[6] abbreviates: GSEA against gene sets from 11 neuroblastoma datasets of the R2 database.
Where [7] appears, read: SK-N-BE(2), NEN 16 h, DAVID analysis.
[8] abbreviates: SK-N-BE(2), NEN 16 h, sleuth q-value<0.05, b>abs(ln(2)).
Setting [9] is: SK-N-BE(2), RNA-seq, validated by RT-qPCR.

In the case of `O=C(Nc1ccc([N+](=O)[O-])cc1Cl)c1cc(Cl)ccc1O` [NEN, 5-chloro-N-(2-chloro-4-nitrophenyl)-2-hydroxybenzamide compound with 2-aminoethanol (1:1)], the “expression of HIF target genes such as pdk1, pdk3, pgk1 and Idha” value in experiment [1] is recorded as “reduced”. In the experiment with SK-N-BE(2) cells [2], the “methylation on promoter region of genes in RAR signaling” value was “reduced”. Also, the tumor growth result in experiment [3] is on record as “significantly slowed”. Also, in experiment [4], the “inhibition of clonogenicity, NEN with RA” value is on record as “strong synergistic effect”. Besides, the cell proliferation result in the experiment on neuroblastoma cells is recorded as “significantly inhibited”. Also, in the experiment on SK-N-BE(2) cells [5] (setting [6]), the “enrichment of NEN-downregulated genes in patient prognosis gene sets” value is “enriched in unfavorable prognosis gene sets” and the “enrichment of NEN-upregulated genes in patient prognosis gene sets” value was “enriched in all the favorable prognosis gene sets except one”. The “genes expression in RAR signaling induced by RA” value in the experiment with SK-N-BE(2) cells [5] (SK-N-BE(2), 1 μM NEN + 1 μM 13-cis-RA 16 hrs, validated by qRT-PCR) is “significantly enhanced”. In the experiment with SK-N-BE(2) cells [5] (SK-N-BE(2), NEN 16 h), the “p53 pathway gene expression (GSEA)” value is listed as “significantly increased”. Also, in the experiment with SK-N-BE(2) cells [5] (setting [7]), the “pathways enriched in NEN-downregulated genes” value is “DNA replication and cell cycle progression”; the “pathways enriched in upregulated genes” value is “neurogenesis, nervous system development and neuron differentiation”. In the experiment on SK-N-BE(2) cells [5] (setting [8]), the “number of genes downregulated” value was determined as 224 and the “number of genes significantly upregulated” value turned out to be 495. In the experiment on SK-N-BE(2) cells [5] (SK-N-BE(2), NEN 16 h vs CTRL), the “cell division-related genes (GSEA hallmarks E2F-TARGETS, G2M_CHECKPOINT)” value was “downregulation” and the “expression of N-Myc targeted genes (GSEA MYC_TARGETS_V1, V2)” value was “reduced”. Also, in the experiment with SK-N-BE(2) cells [5] (setting [9]), the “expression of canonical Wnt/β-catenin target genes” value is “reduced” and the “gene expression of inhibitor of Wnt/β-catenin pathway including TP53” value is given as “upregulated”.
